In patent publication US20220175750A1, “SUSTAINED RELEASE FORMULATION FOR LOCAL DELIVERY OF CDK9 INHIBITORS” (The Regents of the University of California, priority 2019, published 2022):

How the values were obtained:
[1] = Microparticle drug loading / loading efficiency; format: physicochemical; settings: for incorporation of inhibitor (adequacy): PLGA
Experimental: (§1) FIG. 6: Flavopiridol was encapsulated at 1% w/v ratio in PLGA microparticles (MPs) synthesized using Purasorb® PDLG 5004A (Corbion) in methylene chloride at 20% w/v ratio and vortexed vigorously for 30 seconds after addition of polyvinyl alcohol (10%) at 2:1 ratio. The solution was then added dropwise to 1% PVA and mixed overnight, with 3× washes next day and lyophilized overnight. […] FIG. 6B: Linear standard curve for different concentrations of flavopiridol in solution of dissolved PLGA in DMSO acquired with Nanodrop 2000 Spectrophotometer at 274 nm. […] FIG. 6D: SEM image of flavopiridol MPs using a Phillips XL30 Microscope.
Preparation of poly(lactic-co-glycolic) acid (PLGA) or polycaprolactone (PCL) particles with CDK9 inhibitors was performed using a single emulsion-solvent evaporation technique. Briefly, 500 mg of PLGA or PCL was dissolved in 2.5 mL of 2% v/v dimethylsulfoxide in methylene chloride (for PLGA) or chloroform (for PCL). […] The solutions were vortexed at full speed (30 seconds for PLGA or 45 seconds for PCL) to form microparticles. The microparticle suspensions were transferred to 150 mL of 1% poly(vinyl alcohol), and stirred for 24 hours. The particles were pelleted, washed with water, lyophilized and stored at −20° C. for further use. Size distribution was measured using an AccuSizer model 770 optical particle sizer (Particle Sizing Systems).
For example, SNS-032 has a 30.7% loading efficiency, such that of the 2 g of starting SNS-032, about 0.61 g was encapsulated in the PLGA microparticles. Lower amounts of drug encapsulation result in less inhibitor per microparticle. If the loading efficiency decreases below a certain threshold, the amount of microparticles required to deliver a therapeutic dose of the CDK9 inhibitor can become prohibitive (for cost, efficiency, injection volume, and potentially, an adverse reaction of the treated subject to the administered microparticles).

[2] = In vitro release of CDK9 inhibitor from microparticles in PBS-Tween; format: physicochemical; settings: PLGA
Experimental: as §1
Flavopiridol release from the particles was quantified over 42 days in PBS-Tween®, by absorbance at 247 nm.
(B) Release: The release characteristics of the microparticles prepared above were determined using the procedure set forth in Example 2.

[3] = as above; format: physicochemical; settings: PCL
[4] = test system: NFκB target genes; assay: Gene expression in primary human chondrocytes treated with IL-1β with or without flavopiridol; format: cell-based
Description: CDK9 inhibition effectively suppresses the transcription of primary inflammatory response genes.
CDK9 inhibitors exert effects on the inflammatory response pathway.

[5] = test system: ACL-rupture in mice; assay: Primary response gene mRNA expression after ACL-rupture knee injury, systemic flavopiridol; format: in vivo

Compound | % loading efficiency ([1]; PCL microparticles) | % loading efficiency ([1]; PLGA microparticles) | % release ([2]; Day 1) | % release ([2]; Day 3) | % release ([2]; Day 5) | % release ([3]; Day 3) | % release ([3]; Day 7) | average magnitude of repression (of maximum induction) of IL-1β-induced genes ([4]; 300 nM flavopiridol, 10 ng/mL IL-1β, 5 hours) | number of IL-1β-induced genes repressed by flavopiridol co-treatment ([4]; of 67 genes induced by IL-1β (84 NFκB target genes tested)) | repeated versus single administration (IL-1β, IL-6 gene expression) ([5]; 0, 1, or 2 administrations) | mRNA expression of pro-inflammatory cytokines IL-1β and IL-6 at the injured site ([5]; 4-8 hours post-injury, intraperitoneal injection) | window after injury during which flavopiridol is effective at preventing transcription of primary response genes ([5]; delay before administration) | house-keeping gene 18S rRNA, Collagen Type 2 and aggrecan expression ([5]; mouse, in vivo) | amount encapsulated in the PLGA microparticles ([1]; of the 2 g of starting SNS-032) | incorporation of inhibitor (adequacy) [1] | incorporation of inhibitor (adequacy) ([1]; listed as dinaciclib)
Voruciclib | 1.1% | 59.9% | 3.4% | 4.8% | 6.5% | 0.36% | 0.43% | – | – | – | – | – | – | – | – | –
CN1CC[C@H](c2c(O)cc(O)c3c(=O)cc(-c4ccccc4Cl)oc23)[C@H](O)C1 [flavopiridol, 2-(2-chlorophenyl)-5,7-dihydroxy-8-[(3S,4R)-3-hydroxy-1-methyl-4-piperidinyl]-4-chromenone] | – | – | – | – | – | – | – | > 86% | 59 | more effective than a single administration | effectively and selectively suppressed | at least 3 hours | not affected | – | – | –
CC(C)(C)c1cnc(CSc2cnc(NC(=O)C3CCNCC3)s2)o1 [SNS-032] | 0.3% | 30.7% | 4.0% | 5.4% | 7.0% | 0% | 0% | – | – | – | – | – | – | about 0.61 g | – | –
CCc1cnn2c(NCc3ccc[n+]([O-])c3)cc(N3CCCC[C@H]3CCO)nc12 [Dinaciclib] | – | – | – | – | – | – | – | – | – | – | – | – | – | – | not encapsulated effectively | failed to incorporate an adequate amount
